Assay results reported in PubChem BioAssay AID330 (DTP/NCI, 2004).
Several values for one entry are separate records, joined by “and”; a condition that tells them apart may be missing. Equal values may be shown once. Inconclusive results and toxic doses are left out. The calls were made as follows: active = survival T/C of 150% or more; inactive = T/C below 125% in these data.

System: P388 leukemia ip, CD2F1 mice, survival T/C
Test: NCI In Vivo Anticancer Drug Screen. Data for tumor model P388 Leukemia (intraperitoneal) in CD2F1 (CDF1) mice
Conditions: endpoint: median survival time, higher = longer survival
Outline: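 Mice carrying the transplanted tumor received test compound or vehicle. Survival was recorded in each group, and the value is the treated-group measurement divided by that of the vehicle-treated control group.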

[1] = dose: 50.0 mg/kg/injection, schedule: Q01DX005 (ip), vehicle: saline with Tween-80
[2] = dose: 100.0 mg/kg/injection, schedule: Q01DX005 (ip), vehicle: saline with Tween-80
[3] = dose: 200.0 mg/kg/injection, schedule: Q01DX005 (ip), vehicle: saline with Tween-80
[4] = dose: 60.0 mg/kg/injection, schedule: Q01DX005 (ip), vehicle: saline with Tween-80
[5] = dose: 120.0 mg/kg/injection, schedule: Q01DX005 (ip), vehicle: saline with Tween-80
[6] = dose: 240.0 mg/kg/injection, schedule: Q01DX005 (ip), vehicle: saline with Tween-80
[7] = dose: 50.0 mg/kg/injection, schedule: Q01DX005 (ip), vehicle: saline
[8] = dose: 50.0 mg/kg/injection, schedule: Q01DX009 (ip), vehicle: Klucel (hydroxypropylcellulose) (HPC)
[9] = dose: 100.0 mg/kg/injection, schedule: Q01DX009 (ip), vehicle: Klucel (hydroxypropylcellulose) (HPC)
[10] = dose: 200.0 mg/kg/injection, schedule: Q01DX009 (ip), vehicle: Klucel (hydroxypropylcellulose) (HPC)
[11] = dose: 400.0 mg/kg/injection, schedule: Q01DX009 (ip), vehicle: Klucel (hydroxypropylcellulose) (HPC)
[12] = dose: 100.0 mg/kg/injection, schedule: Q01DX005 (ip), vehicle: saline
[13] = dose: 50.0 mg/kg/injection, schedule: Q01DX005 (ip), vehicle: Klucel (hydroxypropylcellulose) (HPC)
[14] = dose: 100.0 mg/kg/injection, schedule: Q01DX005 (ip), vehicle: Klucel (hydroxypropylcellulose) (HPC)
[15] = dose: 200.0 mg/kg/injection, schedule: Q01DX005 (ip), vehicle: Klucel (hydroxypropylcellulose) (HPC)

Measured: T/C

C=C1CC2(CC(C)CCC2C(C)C)OC1=O (stereo not drawn)
inactive: dose: 100.0 mg/kg/injection, schedule: Q01DX001 (ip), vehicle: saline 97 % of control | dose: 200.0 mg/kg/injection, schedule: Q01DX001 (ip), vehicle: saline 100 % of control | dose: 400.0 mg/kg/injection, schedule: Q01DX001 (ip), vehicle: saline 111 % of control

O=c1[nH]c(=O)c2c(Cl)cccc2[nH]1
inactive: [1] 93 % of control | [2] 100 % of control | [3] 91 % of control

O=C(N/N=C/c1ccc(C(F)(F)F)cc1)c1ccncc1
inactive: dose: 15.0 mg/kg/injection, schedule: Q01DX005 (ip), vehicle: saline with Tween-80 106 % of control | dose: 30.0 mg/kg/injection, schedule: Q01DX005 (ip), vehicle: saline with Tween-80 101 % of control | [4] 101 % of control and 97 % of control | [5] 100 % of control | [6] 100 % of control

C=C1C(=O)O[C@@H]2C[C@@]3(C)CC(=O)C=C(C)[C@@H]3C[C@H]12
inactive: dose: 6.25 mg/kg/injection, schedule: Q04DX003 (ip), vehicle: saline with Tween-80 108 % of control | dose: 12.5 mg/kg/injection, schedule: Q04DX003 (ip), vehicle: saline with Tween-80 104 % of control | dose: 25.0 mg/kg/injection, schedule: Q04DX003 (ip), vehicle: saline with Tween-80 108 % of control | dose: 50.0 mg/kg/injection, schedule: Q04DX003 (ip), vehicle: saline with Tween-80 100 % of control

CC(=O)C[n+]1ccccc1Oc1ccccc1
inactive: dose: 25.0 mg/kg/injection, schedule: Q01DX005 (ip), vehicle: saline 93 % of control | [7] 96 % of control

O=S(=O)(F)c1ncnc2nc[nH]c12
inactive: [1] 93 % of control | [2] 103 % of control | [3] 112 % of control

O=c1oc2c(c(N(c3ccccc3)c3ccccc3)c1Cl)Cc1ccccc1CC2
inactive: dose: 50.0 mg/kg/injection, schedule: Q04DX003 (ip), vehicle: Klucel (hydroxypropylcellulose) (HPC) 95 % of control | dose: 100.0 mg/kg/injection, schedule: Q04DX003 (ip), vehicle: Klucel (hydroxypropylcellulose) (HPC) 92 % of control | dose: 200.0 mg/kg/injection, schedule: Q04DX003 (ip), vehicle: Klucel (hydroxypropylcellulose) (HPC) 91 % of control

O=C(CS(=O)(=O)O)c1ccccc1
inactive: dose: 25.0 mg/kg/injection, schedule: Q04DX002 (ip), vehicle: saline with Tween-80 100 % of control | dose: 50.0 mg/kg/injection, schedule: Q04DX002 (ip), vehicle: saline with Tween-80 106 % of control | dose: 100.0 mg/kg/injection, schedule: Q04DX002 (ip), vehicle: saline with Tween-80 94 % of control and 97 % of control

COC12C=CC(=O)N1CCC2 (stereo not drawn)
inactive: dose: 7.5 mg/kg/injection, schedule: Q01DX005 (ip), vehicle: DMSO 90 % of control | dose: 15.0 mg/kg/injection, schedule: Q01DX005 (ip), vehicle: DMSO 101 % of control | dose: 30.0 mg/kg/injection, schedule: Q01DX005 (ip), vehicle: DMSO 101 % of control

CN(C)N=Nc1cccc(Cl)c1
inactive: dose: 6.25 mg/kg/injection, schedule: Q01DX009 (ip), vehicle: Klucel (hydroxypropylcellulose) (HPC) 95 % of control | dose: 12.5 mg/kg/injection, schedule: Q01DX009 (ip), vehicle: Klucel (hydroxypropylcellulose) (HPC) 105 % of control | dose: 12.5 mg/kg/injection, schedule: Q01DX009 (ip), vehicle: saline with Tween-80 100 % of control | dose: 25.0 mg/kg/injection, schedule: Q01DX009 (ip), vehicle: Klucel (hydroxypropylcellulose) (HPC) 98 % of control | dose: 25.0 mg/kg/injection, schedule: Q01DX009 (ip), vehicle: saline + alcohol 107 % of control | dose: 25.0 mg/kg/injection, schedule: Q01DX009 (ip), vehicle: saline with Tween-80 98 % of control | dose: 25.0 mg/kg/injection, schedule: Q01DX009 (ip), vehicle: saline 91 % of control | [8] 100 % of control | dose: 50.0 mg/kg/injection, schedule: Q01DX009 (ip), vehicle: saline + alcohol 120 % of control | dose: 50.0 mg/kg/injection, schedule: Q01DX009 (ip), vehicle: saline with Tween-80 107 % of control | dose: 50.0 mg/kg/injection, schedule: Q01DX009 (ip), vehicle: saline 99 % of control | dose: 100.0 mg/kg/injection, schedule: Q01DX009 (ip), vehicle: saline with Tween-80 105 % of control | dose: 100.0 mg/kg/injection, schedule: Q01DX009 (ip), vehicle: saline 97 % of control | dose: 200.0 mg/kg/injection, schedule: Q01DX009 (ip), vehicle: saline 100 % of control

C/C(=N\O)C1(O)CCCCC1
inactive: [8] 108 % of control | [9] 108 % of control | [10] 105 % of control | [11] 113 % of control

CCS1=C(C(C)=O)C(=O)O[C@H](C)C1 (stereo partly drawn)
inactive: [7] 100 % of control | [12] 98 % of control | dose: 200.0 mg/kg/injection, schedule: Q01DX005 (ip), vehicle: saline 115 % of control

CCN(CC)C(=O)C1CN2CCc3cc(OC)c(OC)cc3C2CC1O (stereo not drawn)
inactive: [13] 104 % of control and 108 % of control | [14] 106 % of control and 109 % of control | [15] 123 % of control

CC(=NCc1ccccc1)NO
inactive: [7] 97 % of control | [12] 96 % of control

Oc1cc2c(c3c(O)c4ccccc4c(O)c13)=NC1CCCCC1N=2 (stereo not drawn)
inactive: dose: 25.0 mg/kg/injection, schedule: Q01DX005 (ip), vehicle: Klucel (hydroxypropylcellulose) (HPC) 100 % of control | [13] 102 % of control | [14] 103 % of control | [15] 93 % of control

CC(=O)O[C@H]1CC[C@]2(C)C34OC3C[C@]3(C)[C@@H](C(C)=O)CC[C@H]3[C@]43C=C[C@@]2(C1)C1C(=O)OC(=O)C13 (stereo partly drawn)
inactive: [13] 112 % of control | [14] 106 % of control

CCCCCC1(CCCCCCCC(O)CC(=O)OCC)OCCO1 (stereo not drawn)
inactive: dose: 100.0 mg/kg/injection, schedule: Q01DX001 (ip), vehicle: Klucel (hydroxypropylcellulose) (HPC) 100 % of control | dose: 200.0 mg/kg/injection, schedule: Q01DX001 (ip), vehicle: Klucel (hydroxypropylcellulose) (HPC) 108 % of control | dose: 400.0 mg/kg/injection, schedule: Q01DX001 (ip), vehicle: Klucel (hydroxypropylcellulose) (HPC) 100 % of control

Cc1cc(=O)n2c(n1)sc1cc(Cl)ccc12
inactive: dose: 18.75 mg/kg/injection, schedule: Q04DX002 (ip), vehicle: Klucel (hydroxypropylcellulose) (HPC) 102 % of control | dose: 37.5 mg/kg/injection, schedule: Q04DX002 (ip), vehicle: Klucel (hydroxypropylcellulose) (HPC) 93 % of control | dose: 75.0 mg/kg/injection, schedule: Q04DX002 (ip), vehicle: Klucel (hydroxypropylcellulose) (HPC) 101 % of control

BrCCCCOCBr
inactive: dose: 60.0 mg/kg/injection, schedule: Q01DX005 (ip), vehicle: saline 95 % of control | dose: 120.0 mg/kg/injection, schedule: Q01DX005 (ip), vehicle: saline 95 % of control | dose: 240.0 mg/kg/injection, schedule: Q01DX005 (ip), vehicle: saline 86 % of control

CCCCNc1ccc2nnc(C)n2n1
inactive: [13] 103 % of control | dose: 100.0 mg/kg/injection, schedule: Q01DX005 (ip), vehicle: DMSO 98 % of control | [14] 108 % of control | dose: 200.0 mg/kg/injection, schedule: Q01DX005 (ip), vehicle: DMSO 104 % of control | [15] 100 % of control

Cc1c2cnccc2c(C)c2c1[nH]c1ccccc12
inactive: dose: 25.0 mg/kg/injection, schedule: Q04DX002 (ip), vehicle: Klucel (hydroxypropylcellulose) (HPC) 98 % of control | dose: 50.0 mg/kg/injection, schedule: Q04DX002 (ip), vehicle: Klucel (hydroxypropylcellulose) (HPC) 103 % of control | dose: 100.0 mg/kg/injection, schedule: Q04DX002 (ip), vehicle: Klucel (hydroxypropylcellulose) (HPC) 105 % of control | dose: 180.0 mg/kg/injection, schedule: Q04DX002 (ip), vehicle: Klucel (hydroxypropylcellulose) (HPC) 94 % of control | dose: 200.0 mg/kg/injection, schedule: Q04DX002 (ip), vehicle: Klucel (hydroxypropylcellulose) (HPC) 111 % of control | dose: 360.0 mg/kg/injection, schedule: Q04DX002 (ip), vehicle: Klucel (hydroxypropylcellulose) (HPC) 108 % of control

Cc1c(C)c2ccccc2[nH]c1=O
inactive: [8] 101 % of control | [9] 104 % of control | [10] 113 % of control | [11] 100 % of control

CCOC(=O)/C=C/N=[N+]=[N-]
inactive: [4] 102 % of control | [5] 105 % of control | [6] 106 % of control
